Experimental data reported in ChEMBL document CHEMBL4418270, “Novel Pyrimidine- And Triazine-Hepcidine Antagonists” (2012).

Biological target: T1, Hepcidin (Homo sapiens) (UniProt P81172)
T1 sequence (whole entry): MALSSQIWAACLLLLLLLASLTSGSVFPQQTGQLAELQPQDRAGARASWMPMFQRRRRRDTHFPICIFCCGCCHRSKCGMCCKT
Assay: Inhibition of human hepcidin-stimulated recombinant C-terminal Halo-tagged human FPN internalization in MDCK cells at 10 uM incubated for 15 to 20 mins by Halo-tagged TMR based fluorescence assay relative to control
Assay type: cell-based

| SMILES | inhibition [%] |
| --- | --- |
| CN(c1ccccc1)c1nc(N2CCOCC2)nc(-n2ccnc2)n1 | < 50 |
| Nc1nc(-c2ccccn2)nc(N)c1Cc1ccccc1F | < 50 |
| Cc1nc(-c2ccccn2)nc(NCCNc2ccc(C(F)(F)F)cn2)c1Cl | < 50 |
| Cc1nc(-c2ccccn2)nc(NCCNc2cc(C(F)(F)F)ccn2)c1Cl | < 50 |
| c1ccc(N(c2ccccc2)c2nc(N3CCOCC3)nc(-n3ccnc3)n2)cc1 | > 50 |
| COc1cnc(-c2ccccn2)nc1NC(C)C | > 50 |

Now from value to compound:

| inhibition [%] | SMILES |
| --- | --- |
| > 50 | COc1ccc(O)c(/C=N/Nc2nc(N3CCOCC3)nc(N3CCOCC3)n2)c1 |
| < 50 | Cc1ccc2cc(Nc3nc(N4CCOCC4)nc(N4CCOCC4)n3)ccc2n1 |
| > 50 | Oc1cccc(/C=N/Nc2cc(N3CCOCC3)nc(N3CCOCC3)n2)c1 |
| > 50 | Cc1nc(N/N=C/c2ccc(O)cc2O)cc(N2CCOCC2)n1 |
| > 50 | Oc1ccccc1/C=N/Nc1cc(N2CCOCC2)nc(N2CCOCC2)n1 |
| < 50 | C/C(=N\Nc1cc(N2CCOCC2)nc(C)n1)c1ccc(F)cc1 |
